Measured values reported in patent publication US4910208A, “Method of inhibiting leukotriene biosynthesis by oral administration of p-aminophenols or derivatives thereof” (E. R. Squibb & Sons, Inc., priority 1988, dated 1990).
Like-named read-outs stand apart in the source and are kept apart here.

Columns and labels:
[1] = test system: SRS-mediated bronchoconstriction; assay: Standard assay for inhibitors of SRS-mediated bronchoconstriction in sensitized guinea pigs; format: in vivo, guinea pig (male Hartly); conditions: for ED50: Cavia porcellus, po, 1 h; for antiasthmatic activity when administered orally: oral
Experimental: Guinea pigs sensitized to ovalbumin and challenged intravenously with this antigen in the presence of the cyclooxygenase inhibitor, indomethacin (IM), an antihistamine, methapyriline, and a beta-antagonist, propranolol,undergo a delayed (3-13 minutes) bronchospasm, presumed due to the synthesis and release of SRS (leukotriene C, D, and E). A Buxco respiratory mechanics analyzer is used to evaluate the in vivo efficacy of inhibitors of the lipoxygenase pathway in this model of SRS-mediated bronchoconstriction. This system monitors pulmonary air flow, through use of a whole body plethysomgraph, and transpulmonary pressure, from tracheal and intrapleural catheters. Tidal volume is derived from the flow signal by integration, and airway resistance (R) and dynamic compliance (^C dyn) are continuously computed by the system from the primary flow, volume, and pressure parameters. In addition, the system continuously monitors blood pressure and heart rate.
Male Hartly guinea pigs (200 g) ar sensitized by injecting ovalbumin (OA) (10 mg/kg) (each injection also contains 16 mg Amphojel) ip o days 0 and 2. These animals are normally used on days 10-18 following initial sensitization.
On the test day animals are anesthetized by ip injection of urethane (1.2-1.5 g/kg. The jugular vein and carotid artery are catheterized using intramedic PR50 tubing. The trachea is catheterized using intramedic PE240 tubing. Spontaneous respiration is arrested by injecting succinyl choline (2.0 mg/kg, iv) into the jugular vein, and the animal is artificially respirated at 48 breaths/minute with a volume of 4.0 ml/breath. Intramedic PE200 tubing is inserted through the chest wall into the intrapleural space, and the tracheal (by sidearm attachment) and intrapleural cannulas are attached to a single pressure transducer in order to obtain the transpulmonary pressure. The standard protocol requires an initial injection of indomethacin (meglumine salt) (10 mg/kg, iv). Five minutes later antihistamine (methapyrilene, 2 mg/kg, iv) is given, followed one minute later by propranolol (0.1 mg/kg, iv) to induce leukotriene induced bronchoconstriction with no histamine-induced bronchoconstriction and no beta-agonistic bronchoconstriction. Respiratory parameters are then allowed to stabilize for 5-15 minutes. Drugs are tested for oral activity by giving the compound by gavage to 18 hour fasted animals one hour prior to anesthetization. At restabilization, base lines are recorded by the computer for all parameters. To induce bronchoconstriction, a challenge dose of OA (0.4 mg/kg, iv) is given.
Results are expressed as % of baseline values after antigen challenge for R and ^C dyn, and percent inhibition is calculated by comparing % changes in baseline values between control (vehicle) and drug treated test groups.
Statistical significance is determined using a two tailed, unpaired T-test. Drug effects with p<0.05 will be considered significant.
Test compounds were evaluated for their ability to inhibit SRS-mediated changes in dynamic compliance (^C dyn) and resistance (R) as compared to the medicated (indomethacin-methapyrilenepropranolol) control group.

[2] = test system: SRS-mediated bronchoconstriction; assay: as above; format: in vivo, guinea pig (male Hartly); conditions: 10 mg/kg, iv less than one minute before OA challenge
[3] = 5.0 mg/kg P.O., one hour before i.v. antigen challenge
[4] = 12.5 mg/kg P.O., one hour before i.v. antigen challenge
[5] = 25.0 mg/kg P.O., one hour before i.v. antigen challenge
[6] = 50.0 mg/kg P.O., one hour before i.v. antigen challenge
[7] = P.O., one hour before i.v. antigen challenge, read-out: ED50^Cdyn (dose producing 50% inhibition of SRS-mediated changes in dynamic compliance)
[8] = P.O., one hour before i.v. antigen challenge, read-out: ED50^R (dose producing 50% inhibition of SRS-mediated changes in resistance)
[9] = 3.0 mg/kg P.O., one hour before i.v. antigen challenge
[10] = 6.0 mg/kg P.O., one hour before i.v. antigen challenge
[11] = 9.0 mg/kg P.O., one hour before i.v. antigen challenge

Structure (SMILES) | Dynamic Compliance (Cdyn), % of baseline following antigen challenge (mean ± S.E.) [1, 4] | Dynamic Compliance (Cdyn), Inhibition (%) [1, 4] [%] | Resistance (R), % of baseline following antigen challenge (mean ± S.E.) [1, 4] | Resistance (R), Inhibition (%) [1, 4] [%] | Dynamic Compliance (Cdyn), % of baseline following antigen challenge (mean ± S.E.) [1, 5] | Dynamic Compliance (Cdyn), Inhibition (%) [1, 5] [%] | Resistance (R), % of baseline following antigen challenge (mean ± S.E.) [1, 5] | Resistance (R), Inhibition (%) [1, 5] [%] | Dynamic Compliance (Cdyn), % of baseline following antigen challenge (mean ± S.E.) [1, 6] | Dynamic Compliance (Cdyn), Inhibition (%) [1, 6] [%] | Resistance (R), % of baseline following antigen challenge (mean ± S.E.) [1, 6] | Resistance (R), Inhibition (%) [1, 6] [%] | ED50 [1, 7] [mg/kg] | ED50 [1, 8] [mg/kg] | antiasthmatic activity when administered orally [1] | other results
COc1ccc2cc(Nc3ccc(O)cc3)ccc2c1 [Example 2, 4-[(6-Methoxy-2-naphthyl)amino]phenol] | 44 ± 5 % of Baseline | 33 | 231 ± 39 % of Baseline | 57 | 62 ± 7 % of Baseline | 52 | 194 ± 42 % of Baseline | 69 | 66 ± 4 % of Baseline | 57 | 149 ± 11 % of Baseline | 84 | 23.8 | 6 | exhibit antiasthmatic activity | Dynamic Compliance (Cdyn), % of baseline following antigen challenge (mean ± S.E.) [1, 3]: 23 ± 7 % of Baseline; Dynamic Compliance (Cdyn), Inhibition (%) [1, 3]: 3%; Resistance (R), % of baseline following antigen challenge (mean ± S.E.) [1, 3]: 335 ± 74 % of Baseline; Resistance (R), Inhibition (%) [1, 3]: 23%; oral activity ([1]; P.O., one hour before antigen challenge): orally active; ED50^Cdyn (dose producing 50% inhibition of SRS-mediated changes in dynamic compliance) ([1]; P.O., one hour before i.v. antigen challenge): 23.8(14.1-51.7) mg/kg
COc1ccc2cc(N(C)c3ccc(O)cc3)ccc2c1 [Example 17] | 64 ± 7 % of Baseline | 56 | 136 ± 10 % of Baseline | 88 | 57 ± 10 % of Baseline | 47 | 149 ± 23 % of Baseline | 82 |  |  |  |  | 6 to 9 | 6 to 9 | exhibit antiasthmatic activity | Dynamic Compliance (Cdyn), % of baseline following antigen challenge (mean ± S.E.) [1, 9]: 19 ± 11 % of Baseline; Dynamic Compliance (Cdyn), Inhibition (%) [1, 9]: 0%; Resistance (R), % of baseline following antigen challenge (mean ± S.E.) [1, 9]: 467 ± 134 % of Baseline; Resistance (R), Inhibition (%) [1, 9]: 0%; Dynamic Compliance (Cdyn), % of baseline following antigen challenge (mean ± S.E.) [1, 10]: 31 ± 20 % of Baseline; Dynamic Compliance (Cdyn), Inhibition (%) [1, 10]: 15%; Resistance (R), % of baseline following antigen challenge (mean ± S.E.) [1, 10]: 374 ± 132 % of Baseline; Resistance (R), Inhibition (%) [1, 10]: 1%; Dynamic Compliance (Cdyn), % of baseline following antigen challenge (mean ± S.E.) [1, 11]: 64 ± 8 % of Baseline; Dynamic Compliance (Cdyn), Inhibition (%) [1, 11]: 56%; Resistance (R), % of baseline following antigen challenge (mean ± S.E.) [1, 11]: 141 ± 28 % of Baseline; Resistance (R), Inhibition (%) [1, 11]: 85%; inhibition of antigen-induced bronchoconstriction ([1]; PO one hour before antigen challenge): significantly inhibited
CCCc1c(OCC(O)COc2ccc3c(=O)cc(C(=O)O)oc3c2CCC)ccc(C(C)=O)c1O (stereo not shown) [FPL-55712] |  |  |  |  |  |  |  |  |  |  |  |  |  |  |  | inhibition of bronchoconstriction as measured by effects on R and Cdyn [2]: 100%
COc1ccc(Nc2ccc(O)cc2)c(CO)c1 [SQ 30,624, 2-[(4-Hydroxyphenyl)amino]-5-methoxybenzenemethanol, reference compound] |  |  |  |  |  |  |  |  | 4 ± 3 % of Baseline | 0 | 386 ± 64 % of Baseline | 15 |  |  | did not have antiasthmatic activity | oral activity ([1]; dose of 50 mg/kg P.O.): orally inactive
